Test results from ChEMBL document CHEMBL3885881, “DrugMatrix”.

Organism: Rattus norvegicus
Assay: DrugMatrix - Regimen: Daily Repeat
Assay type: toxicity, organism-based, Sprague-Dawley
Set-up: regimen Daily Repeat, gender Male, age 6-8 weeks
Details: in vivo, po, route oral GAVAGE, vehicle .5 % CMC; for ABSOLUTE BASOPHIL / ABSOLUTE EOSINOPHIL / ABSOLUTE LYMPHOCYTE / ABSOLUTE MONOCYTE / ABSOLUTE SEGMENTED NEUTROPHIL / BASOPHIL / EOSINOPHIL / ERYTHROCYTE COUNT / HEMATOCRIT / HEMOGLOBIN / LEUKOCYTE COUNT / LYMPHOCYTE / MEAN CORPUSCULAR HEMOGLOBIN / MEAN CORPUSCULAR HEMOGLOBIN CONCENTRATION / MEAN CORPUSCULAR VOLUME / MONOCYTE / NEUTROPHIL / NUCLEATED RED BLOOD CELLS / PLATELET COUNT: tissue Blood; for ALANINE AMINOTRANSFERASE / ALBUMIN / ALKALINE PHOSPHATASE / ASPARTATE AMINOTRANSFERASE / BLOOD UREA NITROGEN / CARBON DIOXIDE / CHLORIDE / CHOLESTEROL / CREATINE PHOSPHOKINASE / CREATININE / GLUCOSE / LACTATE DEHYDROGENASE / LIPASE / PHOSPHORUS / POTASSIUM / SODIUM / TOTAL BILIRUBIN / TOTAL PROTEIN / URIC ACID: tissue Plasma
[1] = 0 mg/kg, 72 h, dose level Control, time 3 day
[2] = 0 mg/kg, 120 h, dose level Control, time 5 day
[3] = 10 mg/kg, 72 h, dose level Low, time 3 day

SMILES: O=C1CN=C(c2ccccc2Cl)c2cc([N+](=O)[O-])ccc2N1 [CLONAZEPAM]
- ABSOLUTE BASOPHIL [1]: 0 CELLS/uL
- ABSOLUTE EOSINOPHIL [1]: 0 CELLS/uL
- ABSOLUTE LYMPHOCYTE [1]: 12191.17 CELLS/uL
- ABSOLUTE MONOCYTE [1]: 183.17 CELLS/uL
- ABSOLUTE SEGMENTED NEUTROPHIL [1]: 1192.33 CELLS/uL
- BASOPHIL [1]: 0%
- EOSINOPHIL [1]: 0%
- ERYTHROCYTE COUNT [1]: 5.51 x10E6/uL
- HEMATOCRIT [1]: 35.45%
- HEMOGLOBIN [1]: 13.82 G/DL
- LEUKOCYTE COUNT [1]: 13.57 x10E3/uL
- LYMPHOCYTE [1]: 89.83%
- MEAN CORPUSCULAR HEMOGLOBIN [1]: 25.1 pg
- MEAN CORPUSCULAR HEMOGLOBIN CONCENTRATION [1]: 38.98 G/DL
- MEAN CORPUSCULAR VOLUME [1]: 64.42 fL
- MONOCYTE [1]: 1.33%
- NEUTROPHIL [1]: 8.83%
- NUCLEATED RED BLOOD CELLS [1]: 0 /100WBC
- PLATELET COUNT [1]: 1118.17 x10E3/uL
- ALANINE AMINOTRANSFERASE [1]: 55 u/L
- ALBUMIN [1]: 4.15 G/DL
- ALKALINE PHOSPHATASE [1]: 449.5 u/L
- ASPARTATE AMINOTRANSFERASE [1]: 112.83 u/L
- BLOOD UREA NITROGEN [1]: 17.33 mg/dL
- CARBON DIOXIDE [1]: 29.5 mmol/L
- CHLORIDE [1]: 101 MEQ/L
- CHOLESTEROL [1]: 70 mg/dL
- CREATINE PHOSPHOKINASE [1]: 1325.83 u/L
- CREATININE [1]: 0.18 mg/dL
- GLUCOSE [1]: 171.5 mg/dL
- LACTATE DEHYDROGENASE [1]: 386 u/L
- LIPASE [1]: 10 u/L
- PHOSPHORUS [1]: 11.57 mg/dL
- POTASSIUM [1]: 6.21 MEQ/L
- SODIUM [1]: 141.65 MEQ/L
- TOTAL BILIRUBIN [1]: 0.15 mg/dL
- TOTAL PROTEIN [1]: 5.75 G/DL
- URIC ACID [1]: 1.28 mg/dL
- ABSOLUTE BASOPHIL [2]: 0 CELLS/uL
- ABSOLUTE EOSINOPHIL [2]: 138.17 CELLS/uL
- ABSOLUTE LYMPHOCYTE [2]: 13283.17 CELLS/uL
- ABSOLUTE MONOCYTE [2]: 303.83 CELLS/uL
- ABSOLUTE SEGMENTED NEUTROPHIL [2]: 1308.17 CELLS/uL
- BASOPHIL [2]: 0%
- EOSINOPHIL [2]: 1%
- ERYTHROCYTE COUNT [2]: 5.32 x10E6/uL
- HEMATOCRIT [2]: 33.8%
- HEMOGLOBIN [2]: 13.63 G/DL
- LEUKOCYTE COUNT [2]: 15.03 x10E3/uL
- LYMPHOCYTE [2]: 88.33%
- MEAN CORPUSCULAR HEMOGLOBIN [2]: 25.68 pg
- MEAN CORPUSCULAR HEMOGLOBIN CONCENTRATION [2]: 40.35 G/DL
- MEAN CORPUSCULAR VOLUME [2]: 63.67 fL
- MONOCYTE [2]: 1.83%
- NEUTROPHIL [2]: 8.83%
- NUCLEATED RED BLOOD CELLS [2]: 0 /100WBC
- PLATELET COUNT [2]: 1097.5 x10E3/uL
- ALANINE AMINOTRANSFERASE [2]: 54.5 u/L
- ALBUMIN [2]: 4.27 G/DL
- ALKALINE PHOSPHATASE [2]: 337 u/L
- ASPARTATE AMINOTRANSFERASE [2]: 94.67 u/L
- BLOOD UREA NITROGEN [2]: 17 mg/dL
- CARBON DIOXIDE [2]: 28.33 mmol/L
- CHLORIDE [2]: 101.5 MEQ/L
- CHOLESTEROL [2]: 71.33 mg/dL
- CREATINE PHOSPHOKINASE [2]: 628.17 u/L
- CREATININE [2]: 0.19 mg/dL
- GLUCOSE [2]: 177.83 mg/dL
- LACTATE DEHYDROGENASE [2]: 500.5 u/L
- LIPASE [2]: 9.5 u/L
- PHOSPHORUS [2]: 12.3 mg/dL
- POTASSIUM [2]: 5.63 MEQ/L
- SODIUM [2]: 143.03 MEQ/L
- TOTAL BILIRUBIN [2]: 0.2 mg/dL
- TOTAL PROTEIN [2]: 6.02 G/DL
- URIC ACID [2]: 1.5 mg/dL
- ABSOLUTE BASOPHIL [3]: 0 CELLS/uL
- ABSOLUTE EOSINOPHIL [3]: 0 CELLS/uL
- ABSOLUTE LYMPHOCYTE [3]: 12266.67 CELLS/uL
- ABSOLUTE MONOCYTE [3]: 135.33 CELLS/uL
- ABSOLUTE SEGMENTED NEUTROPHIL [3]: 664.67 CELLS/uL
- BASOPHIL [3]: 0%
- EOSINOPHIL [3]: 0%
- ERYTHROCYTE COUNT [3]: 5.48 x10E6/uL
- HEMATOCRIT [3]: 35.23%
- HEMOGLOBIN [3]: 13.73 G/DL
- LEUKOCYTE COUNT [3]: 13.07 x10E3/uL
- LYMPHOCYTE [3]: 93.33%
- MEAN CORPUSCULAR HEMOGLOBIN [3]: 25.1 pg
- MEAN CORPUSCULAR HEMOGLOBIN CONCENTRATION [3]: 38.97 G/DL
- MEAN CORPUSCULAR VOLUME [3]: 64.3 fL
- MONOCYTE [3]: 1.33%
- NEUTROPHIL [3]: 5.33%
- NUCLEATED RED BLOOD CELLS [3]: 0 /100WBC
- PLATELET COUNT [3]: 1157.67 x10E3/uL
- ALANINE AMINOTRANSFERASE [3]: 58.33 u/L
- ALBUMIN [3]: 4.1 G/DL
- ALKALINE PHOSPHATASE [3]: 310 u/L
- ASPARTATE AMINOTRANSFERASE [3]: 85.33 u/L
- BLOOD UREA NITROGEN [3]: 17.67 mg/dL
- CARBON DIOXIDE [3]: 27.67 mmol/L
- CHLORIDE [3]: 101.67 MEQ/L
- CHOLESTEROL [3]: 69.33 mg/dL
- CREATINE PHOSPHOKINASE [3]: 333.33 u/L
- CREATININE [3]: 0.16 mg/dL
- GLUCOSE [3]: 163 mg/dL
- LACTATE DEHYDROGENASE [3]: 104.33 u/L
- LIPASE [3]: 10 u/L
- PHOSPHORUS [3]: 11.3 mg/dL
- POTASSIUM [3]: 6.13 MEQ/L
- SODIUM [3]: 142.3 MEQ/L
- TOTAL BILIRUBIN [3]: 0.1 mg/dL
- TOTAL PROTEIN [3]: 5.6 G/DL
- URIC ACID [3]: 1.73 mg/dL
